Measurements reported in PubChem BioAssay AID248 (DTP/NCI, 2004).
Inconclusive results and toxic doses are left out. Rule as the data show it: active = T/C of 150% or more; inactive = T/C below 125%.

Tested on: L1210 leukemia ip in BDF1 mice, survival T/C
Assay: NCI In Vivo Anticancer Drug Screen. Data for tumor model L1210 Leukemia (intraperitoneal) in B6D2F1 (BDF1) mice
Conditions: endpoint: mean survival time, higher = longer survival
How it was run: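 Tumor cells were implanted, animals were treated, and survival was followed. The result divides the treated measurement by the vehicle-control measurement.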

[1] = dose: 100.0 mg/kg/injection, schedule: Q04DX002 (ip), vehicle: saline with Tween-80
[2] = dose: 200.0 mg/kg/injection, schedule: Q04DX002 (ip), vehicle: saline with Tween-80
[3] = dose: 200.0 mg/kg/injection, schedule: Q01DX001 (ip), vehicle: carboxymethylcellulose (CMC)
[4] = dose: 100.0 mg/kg/injection, schedule: Q01DX009 (ip), vehicle: other
[5] = dose: 200.0 mg/kg/injection, schedule: Q01DX009 (ip), vehicle: other
[6] = dose: 400.0 mg/kg/injection, schedule: Q01DX009 (ip), vehicle: other
[7] = dose: 100.0 mg/kg/injection, schedule: Q04DX003 (ip), vehicle: Klucel (hydroxypropylcellulose) (HPC)
[8] = dose: 200.0 mg/kg/injection, schedule: Q04DX003 (ip), vehicle: Klucel (hydroxypropylcellulose) (HPC)
[9] = dose: 400.0 mg/kg/injection, schedule: Q04DX003 (ip), vehicle: Klucel (hydroxypropylcellulose) (HPC)

Measured: T/C

OC(CCl)Cc1ccccc1 (configuration not stated)
inactive: dose: 25.0 mg/kg/injection, schedule: Q01DX009 (ip), vehicle: saline with Tween-80 93 % of control | dose: 50.0 mg/kg/injection, schedule: Q01DX009 (ip), vehicle: saline with Tween-80 90 % of control | dose: 100.0 mg/kg/injection, schedule: Q01DX009 (ip), vehicle: saline with Tween-80 92 % of control

NC(=O)COc1ccc(F)cc1F
inactive: [1] 101 % of control | [2] 97 % of control | dose: 400.0 mg/kg/injection, schedule: Q04DX002 (ip), vehicle: saline with Tween-80 93 % of control

COC1OC(CN2CC2)C2OC(C)(C)OC12 (configuration not stated)
inactive: dose: 75.0 mg/kg/injection, schedule: Q01DX001 (ip), vehicle: carboxymethylcellulose (CMC) 102 % of control

S=C(N=Nc1ccccc1)NNc1ccccc1
inactive: dose: 18.8 mg/kg/injection, schedule: Q04DX003 (ip), vehicle: saline with Tween-80 90 % of control | dose: 18.9 mg/kg/injection, schedule: Q01DX009 (ip), vehicle: saline with Tween-80 87 % of control | dose: 30.0 mg/kg/injection, schedule: Q01DX Z (ip), vehicle: carboxymethylcellulose (CMC) 92 % of control | dose: 37.5 mg/kg/injection, schedule: Q01DX009 (ip), vehicle: saline with Tween-80 92 % of control | dose: 37.5 mg/kg/injection, schedule: Q01DX Z (ip), vehicle: carboxymethylcellulose (CMC) 97 % of control | dose: 37.5 mg/kg/injection, schedule: Q04DX003 (ip), vehicle: saline with Tween-80 87 % of control | dose: 45.0 mg/kg/injection, schedule: Q01DX Z (ip), vehicle: carboxymethylcellulose (CMC) 97 % of control | dose: 75.0 mg/kg/injection, schedule: Q01DX009 (ip), vehicle: saline with Tween-80 90 % of control | dose: 75.0 mg/kg/injection, schedule: Q01DX Z (ip), vehicle: carboxymethylcellulose (CMC) 92 % of control | dose: 75.0 mg/kg/injection, schedule: Q04DX003 (ip), vehicle: saline with Tween-80 92 % of control | dose: 150.0 mg/kg/injection, schedule: Q04DX003 (ip), vehicle: saline with Tween-80 88 % of control | [3] 101 % of control

COc1ccc2[nH]ccc2c1
inactive: [4] 90 % of control | dose: 100.0 mg/kg/injection, schedule: Q04DX003 (ip), vehicle: other 92 % of control | [5] 104 % of control | dose: 200.0 mg/kg/injection, schedule: Q04DX003 (ip), vehicle: other 105 % of control | [6] 88 % of control | dose: 400.0 mg/kg/injection, schedule: Q04DX003 (ip), vehicle: other 94 % of control

CC(=O)Nc1ccc(N=Nc2ccccc2)cc1C
inactive: dose: 50.0 mg/kg/injection, schedule: Q04DX003 (ip), vehicle: Klucel (hydroxypropylcellulose) (HPC) 100 % of control | [7] 96 % of control | [8] 96 % of control

S=C1NC(c2ccco2)N2C(=S)NC(c3ccco3)N12 (configuration not stated)
inactive: dose: 100.0 mg/kg/injection, schedule: Q01DX009 (ip), vehicle: gum acacia 90 % of control | dose: 100.0 mg/kg/injection, schedule: Q04DX003 (ip), vehicle: gum acacia 97 % of control | dose: 200.0 mg/kg/injection, schedule: Q01DX009 (ip), vehicle: gum acacia 95 % of control | dose: 200.0 mg/kg/injection, schedule: Q04DX003 (ip), vehicle: gum acacia 103 % of control | dose: 400.0 mg/kg/injection, schedule: Q01DX009 (ip), vehicle: gum acacia 95 % of control | dose: 400.0 mg/kg/injection, schedule: Q04DX003 (ip), vehicle: gum acacia 98 % of control

O=C(c1ccccc1)c1cc(CN(CCCl)CCCl)c(O)cc1O
inactive: dose: 100.0 mg/kg/injection, schedule: Q01DX001 (ip), vehicle: carboxymethylcellulose (CMC) 106 % of control | [3] 117 % of control | dose: 400.0 mg/kg/injection, schedule: Q01DX001 (ip), vehicle: carboxymethylcellulose (CMC) 122 % of control

O=[N+]([O-])c1ccc(C[N+]2(CCC[N+]3(Cc4ccc([N+](=O)[O-])cc4)CCCC3)CCCC2)cc1
inactive: dose: 9.38 mg/kg/injection, schedule: Q01DX001 (ip), vehicle: other 107 % of control | dose: 18.75 mg/kg/injection, schedule: Q01DX001 (ip), vehicle: other 105 % of control

Nc1cccc(OCCc2ccccc2)c1
inactive: dose: 100.0 mg/kg/injection, schedule: Q01DX001 (ip), vehicle: saline with Tween-80 96 % of control | dose: 200.0 mg/kg/injection, schedule: Q01DX001 (ip), vehicle: saline with Tween-80 94 % of control | dose: 400.0 mg/kg/injection, schedule: Q01DX001 (ip), vehicle: saline with Tween-80 96 % of control

Cc1cccc(C[P+](C/C=C/c2ccccc2)(c2ccccc2)c2ccccc2)c1
inactive: dose: 6.25 mg/kg/injection, schedule: Q04DX003 (ip), vehicle: Klucel (hydroxypropylcellulose) (HPC) 92 % of control | dose: 12.5 mg/kg/injection, schedule: Q04DX003 (ip), vehicle: Klucel (hydroxypropylcellulose) (HPC) 92 % of control

CCCCCCN=C(N)c1ccc(NC(=O)c2ccc(C(=O)Nc3ccc(C(N)=NCCCCCC)cc3)cc2)cc1
inactive: dose: 0.62 mg/kg/injection, schedule: Q01DX015 (ip), vehicle: methylcellulose (MC) 101 % of control | dose: 1.25 mg/kg/injection, schedule: Q01DX015 (ip), vehicle: methylcellulose (MC) 95 % of control | dose: 2.5 mg/kg/injection, schedule: Q01DX015 (ip), vehicle: methylcellulose (MC) 103 % of control | dose: 5.0 mg/kg/injection, schedule: Q01DX015 (ip), vehicle: methylcellulose (MC) 112 % of control

CCCCN(CCCC)CP(=S)(CN(CCCC)CCCC)CN(CCCC)CCCC
inactive: [7] 104 % of control | [8] 104 % of control | [9] 107 % of control

C[N+](C)(C)C1/C=C(/Cl)CC/C=C(/Cl)C1 (configuration not stated)
inactive: dose: 9.38 mg/kg/injection, schedule: Q01DX001 (ip), vehicle: saline 96 % of control | dose: 18.75 mg/kg/injection, schedule: Q01DX001 (ip), vehicle: saline 89 % of control | dose: 37.5 mg/kg/injection, schedule: Q01DX001 (ip), vehicle: saline 97 % of control

Cn1c(=O)c2ccc(C(=O)O)cc2c(=O)n1C
inactive: dose: 12.5 mg/kg/injection, schedule: Q04DX003 (ip), vehicle: saline 97 % of control | dose: 25.0 mg/kg/injection, schedule: Q04DX003 (ip), vehicle: saline 98 % of control | dose: 50.0 mg/kg/injection, schedule: Q04DX003 (ip), vehicle: saline 103 % of control | dose: 100.0 mg/kg/injection, schedule: Q04DX003 (ip), vehicle: saline 106 % of control | dose: 200.0 mg/kg/injection, schedule: Q04DX003 (ip), vehicle: saline 92 % of control | dose: 400.0 mg/kg/injection, schedule: Q04DX003 (ip), vehicle: saline 98 % of control

CCc1ccc(NC(C)=O)cc1
inactive: dose: 100.0 mg/kg/injection, schedule: Q04DX003 (ip), vehicle: saline with Tween-80 105 % of control | dose: 200.0 mg/kg/injection, schedule: Q04DX003 (ip), vehicle: saline with Tween-80 94 % of control | dose: 400.0 mg/kg/injection, schedule: Q04DX003 (ip), vehicle: saline with Tween-80 102 % of control

CC(=O)N=c1ccc(C)cn1O
inactive: dose: 75.0 mg/kg/injection, schedule: Q01DX009 (ip), vehicle: Klucel (hydroxypropylcellulose) (HPC) 91 % of control | [7] 104 % of control | dose: 150.0 mg/kg/injection, schedule: Q01DX009 (ip), vehicle: Klucel (hydroxypropylcellulose) (HPC) 102 % of control | [8] 100 % of control | dose: 300.0 mg/kg/injection, schedule: Q01DX009 (ip), vehicle: Klucel (hydroxypropylcellulose) (HPC) 96 % of control | [9] 102 % of control

CC(=O)OC1C=C2CCCCC2(C)CC1 (configuration not stated)
inactive: dose: 50.0 mg/kg/injection, schedule: Q04DX002 (ip), vehicle: saline with Tween-80 96 % of control | [1] 96 % of control | [2] 111 % of control

NC(N)=N/N=C/c1ccc(O)c(C(=O)O)c1
inactive: dose: 15.0 mg/kg/injection, schedule: Q01DX Z (ip), vehicle: methylcellulose (MC) 92 % of control | dose: 30.0 mg/kg/injection, schedule: Q01DX Z (ip), vehicle: methylcellulose (MC) 94 % of control | dose: 60.0 mg/kg/injection, schedule: Q01DX Z (ip), vehicle: methylcellulose (MC) 106 % of control | dose: 60.0 mg/kg/injection, schedule: Q01DX Z (oral), vehicle: methylcellulose (MC) 108 % of control | dose: 120.0 mg/kg/injection, schedule: Q01DX Z (ip), vehicle: methylcellulose (MC) 88 % of control | dose: 120.0 mg/kg/injection, schedule: Q01DX Z (oral), vehicle: methylcellulose (MC) 113 % of control | dose: 250.0 mg/kg/injection, schedule: Q01DX Z (oral), vehicle: methylcellulose (MC) 89 % of control

O=C(NC/C=C/Br)NC1CCCc2ccccc21 (configuration not stated)
inactive: [4] 106 % of control | [5] 110 % of control | [6] 100 % of control
